Like-named read-outs stand apart in the source and are kept apart here. Values belong to the compound of their own block, whether it stands above or below them.
Experiment: Hydrolysis rate of betaine ester, pH-stat titrator at constant pH and temperature
Type: physicochemical
Conditions: for profile of hydrolysis: dependence on pH
Description: Test realised under pH-stat configuartion, at controlled temperature (40°C). Concentration in betaine ester used 1.5.10^-2 mol/l
[formula] Test conditions: C12 BEG added to a solution (pH 10.5) of sodium stearate in distilled water. pH and temperature maintained constant all along the test. Percentage of C12 BEG hydrolysed assessed using an automatic pH stat titrator. Concentrations used: C12 BEG 1.25 10^-2 mol/l Sodium stearate: 1 equivalent 1.25 10^-2 mol/l 2 equivalents 2.5 10^-2 mol/l
[formula] • Hydrolysis rate determined with a Radiometer pH stat. • Temperature (40°C) and pH (10.5) maintained constant. Concentration in C12 BEG or new ion pair C12 BEG/DS: 10^-3 mol/l. • Mixture anionic/nonionic: sodium dodecylsulfate (0.43 g/l), sodium stearate (0.013 g/l), alkylethoxylate (Dobanol 45 7 from Shell, 0.38 g/l), N-cocoyl-N-methylglucamine (0.16 g/l). • Kinetics of hydrolysis of C12 BEG/DS, with or without surfactants all follow a first order in [C12BEG/DS].

[1] = 40°C, pH 10.5, with 1 equivalent of sodium dodecylsulfate
[2] = 40°C, pH 10.5, with 3 equivalents of sodium dodecylsulfate
[3] = 40°C, pH 10.5, with 5 equivalents of sodium dodecylsulfate
[4] = 40°C, pH 10.5, with 10 equivalents of sodium dodecylsulfate
[5] = 40°C, pH 8.5, 1.25 10^-2 mol/l, alone
[6] = 40°C, pH 8.5, with 1 equivalent sodium stearate
[7] = 40°C, pH 8.5, with 2 equivalent sodium stearate
[8] = 40°C, pH 10.5, 1.25 10^-2 mol/l, with 2 equivalents of sodium dodecylsulfate
[9] = 40°C, pH 10.5, 1.25 10^-2 mol/l, with 4 equivalents of sodium dodecylsulfate
[10] = 40°C, pH 10.5, 1.25 10^-2 mol/l, with 9 equivalents of sodium dodecylsulfate
[11] = 40°C, pH 10.5, 10^-3 mol/l, with mixture anionic/nonionic
[12] = 40°C, pH 10.5, 10^-3 mol/l, with sodium dodecylsulfate only
[13] = 40°C, pH 10.5, ion pair 1.25 10^-2 mol/l alone
[14] = 40°C, pH 10.5, ion pair 10^-3 mol/l alone

k (40°C, pH 10.5, alone): 3950 mol^- ^1.l.min^-1
kobs at pH 10.5 (40°C, pH 10.5, alone): 1.25 min^-1
k [1]: 202 mol^- ^1.l.min^-1
kobs at pH 10.5 [1]: 0.064 min^-1
k [2]: 35 mol^- ^1.l.min^-1
kobs at pH 10.5 [2]: 0.0111 min^-1
k [3]: 23.5 mol^- ^1.l.min^-1
kobs at pH 10.5 [3]: 0.0074 min^-1
k [4]: 21 mol^- ^1.l.min^-1
kobs at pH 10.5 [4]: 0.0067 min^-1
half-life (buffer, pH 10.5, 40°C, pH 10.5, alone, read-out: t1/2 at pH 10.5): ~0.5 min
profile of hydrolysis: very dependent on pH
Hydrolysis profile (pH-stat, 40°C, betaine ester 1.5.10^-2 mol/l): very pH dependent
half-life (solution with 1 equivalent sodium dodecylsulfate, pH 10.5, 40°C, pH 10.5, with 1 equivalent of sodium dodecylsulfate, read-out: t1/2 at pH 10.5): 10.8 min
half-life (solution with 3 equivalents sodium dodecylsulfate, pH 10.5, 40°C, pH 10.5, with 3 equivalents of sodium dodecylsulfate, read-out: t1/2 at pH 10.5): 63 min
half-life (solution with 5 equivalents sodium dodecylsulfate, pH 10.5, 40°C, pH 10.5, with 5 equivalents of sodium dodecylsulfate, read-out: t1/2 at pH 10.5): 93 min
half-life (solution with 10 equivalents sodium dodecylsulfate, pH 10.5, 40°C, pH 10.5, with 10 equivalents of sodium dodecylsulfate, read-out: t1/2 at pH 10.5): 104 min
Compound: CC(C)=CCC/C(C)=C/COC(=O)C[N+](C)(C)C.[Cl-] [BEG, geranyloxycarbonyl-N,N,N-trimethylmethanaminium chloride]

kobs at pH 8.5 (40°C, alone): >30 min^-1
k [5]: >100 000 mol^- ^1.l.min^-1
kobs at pH 8.5 [5]: >0.3 min^-1
k [6]: 20 333 mol^- ^1.l.min^-1
kobs at pH 8.5 [6]: 0.0643 min^-1
k [7]: 904 mol^- ^1.l.min^-1
kobs at pH 8.5 [7]: 0.00286 min^-1
k (40°C, pH 10.5, 1.25 10^-2 mol/l, alone): >100 000 mol^- ^1.l.min^-1
k (40°C, pH 10.5, 10^-3 mol/l, alone): >15000 mol^- ^1.l.min^-1
k (40°C, pH 10.5, alone): >100 000 mol^- ^1.l.min^-1
k obs (40°C, pH 10.5, high betaine ester concentration 1.25 10^-2 mol/l, alone): >30 min⁻¹
k obs (40°C, pH 10.5, lower concentration 10^-3 mol/l, alone): >5 min⁻¹
k (40°C, pH 10.5, with 1 equivalent sodium dodecylsulfate): 5.3 mol^- ^1.l.min^-1
k (40°C, pH 10.5, with 1 equivalent sodium hexadecylsulfonate): 1580 mol^- ^1.l.min^-1
k (40°C, pH 10.5, with 2 equivalents sodium stearate): 1265 mol^- ^1.l.min^-1
kobs at pH 8.5 (40°C, with 1 equivalent sodium dodecylsulfate): 0.0017 min^-1
kobs at pH 8.5 (40°C, with 1 equivalent sodium hexadecylsulfonate): 0.5 min^-1
kobs at pH 8.5 (40°C, with 2 equivalents sodium stearate): 0.4 min^-1
half-life at 0.0125 mol/l (buffer, pH 8.5, 40°C, pH 8.5, 1.25 10^-2 mol/l, alone, read-out: t1/2 pH 8.5): < 2 min
half-life at 0.0125 mol/l (buffer, pH 10.5, 40°C, pH 10.5, 1.25 10^-2 mol/l, alone, read-out: t1/2): < 0.0333 min
half-life (buffer, pH 10.5, 40°C, pH 10.5, 10^-3 mol/l, alone, read-out: t1/2): < 0.167 min
half-life (buffer, pH 10.5, 40°C, pH 10.5, alone, read-out: t1/2 pH 10.5): < 0.0333 min
rate of hydrolysis at pH neutral (∼7) (compared with a normal ester, C12 BEG 1.25 10^-2 mol/l): far faster than for a normal ester
profile of hydrolysis: very dependent on pH
half-life at 0.0125 mol/l (sodium stearate solution in distilled water (1 equivalent), pH 8.5, 40°C, pH 8.5, with 1 equivalent sodium stearate, read-out: t1/2 pH 8.5): 11 min
half-life at 0.0125 mol/l (sodium stearate solution in distilled water (2 equivalents), pH 8.5, 40°C, pH 8.5, with 2 equivalent sodium stearate, read-out: t1/2 pH 8.5): 243 min
half-life at 0.0125 mol/l (sodium stearate solution in distilled water (2 equivalents), pH 10.5, 40°C, pH 10.5, with 2 equivalents sodium stearate, read-out: t1/2 pH 10.5): 1.7 min
half-life (solution with 1 equivalent sodium dodecylsulfate, pH 10.5, 40°C, pH 10.5, with 1 equivalent sodium dodecylsulfate, read-out: t1/2 pH 10.5): 414 min
half-life (solution with 1 equivalent sodium hexadecylsulfonate, pH 10.5, 40°C, pH 10.5, with 1 equivalent sodium hexadecylsulfonate, read-out: t1/2 pH 10.5): 1.4 min
Compound: CCCCCCCCCCCC[N+](C)(C)CC(=O)OC/C=C(\C)CCC=C(C)C.[Br-] [C12 BEG, Geranyloxycarbonyl-N,N-dimethyl-N-dodecylmethanaminium bromide]

k [8]: 10.6 mol^- ^1.l.min^-1
k obs [8]: 0.0034 min⁻¹
t1/2 (40°C, pH 10.5, 1.25 10^-2 mol/l, with 2 equivalents of sodium dodecylsulfate, 12500 µM): 206 min
k [9]: 26.1 mol^- ^1.l.min^-1
k obs [9]: 0.0083 min⁻¹
t1/2 (40°C, pH 10.5, 1.25 10^-2 mol/l, with 4 equivalents of sodium dodecylsulfate, 12500 µM): 84 min
k [10]: 32.8 mol^- ^1.l.min^-1
k obs [10]: 0.0104 min⁻¹
t1/2 (40°C, pH 10.5, 1.25 10^-2 mol/l, with 9 equivalents of sodium dodecylsulfate, 12500 µM): 67 min
k [11]: 37 mol^- ^1.l.min^-1
k obs [11]: 0.01169 min⁻¹
t1/2 (40°C, pH 10.5, 10^-3 mol/l, with mixture anionic/nonionic, 1000 µM): 59 min
k [12]: 28.6 mol^- ^1.l.min^-1
k obs [12]: 0.0095 min⁻¹
t1/2 (40°C, pH 10.5, 10^-3 mol/l, with sodium dodecylsulfate only, 1000 µM): 77 min
k [13]: 229 mol^- ^1.l.min^-1
k obs [13]: 0.0724 min⁻¹
t1/2 (40°C, pH 10.5, ion pair 1.25 10^-2 mol/l alone, 12500 µM): 9.6 min
k [14]: 423.7 mol^- ^1.l.min^-1
k obs [14]: 0.134 min⁻¹
t1/2 (40°C, pH 10.5, ion pair 10^-3 mol/l alone, 1000 µM): 5.2 min
Compound: CCCCCCCCCCCCOS(=O)(=O)[O-].CCCCCCCCCCCC[N+](C)(C)CC(=O)OC/C=C(\C)CCC=C(C)C [C12 BEG/DS]

Reference: patent publication EP0752465A1, “Betaine esters for delivery of alcohols” (THE PROCTER & GAMBLE COMPANY, priority 1995, dated 1997)
